Measurements reported in patent publication US10335401B2, “Non-aromatic heterocyclic derivative having MGAT2 inhibitory activity” (Shionogi & Co., Ltd., priority 2015, dated 2019).
pIC50: −log10 of the molar value.

Target: recombinant human MGAT2 (Homo sapiens (Human), UniProt Q3SYC2)
Test: Measurement of human MGAT2 inhibitory activity
Assay type: biochemical
Conditions: recombinant human MGAT2 membrane fraction (Sf-9); 2-Oleoylglycerol and Oleoyl-CoA substrates; 1 hour at room temperature; Diolein detected by RapidFire Q-TOF MS
Text: A full-length human MGAT2 gene to which a Flag-tag had been added at the N-terminal was inserted into pFastBac (from Invitrogen). A recombinant baculovirus was produced in accordance with the protocol for a Bac-to-Bac baculovirus expression system (produced by Invitrogen), and Sf-9 cells were infected therewith. The cells were collected and sonicated, and then the membrane fraction was collected through centrifugation.
Solutions of the compounds of the present invention in DMSO were each aliquoted into 0.2-μL portions in a 384-well polystyrene microplate produced by Corning Incorporated, and 5 μL of an enzyme solution prepared with an assay buffer (100 mmol/L phosphate buffer (pH 7.4) containing 2 mmol/L DTT) and 5 μL of a substrate solution (100 mmol/L phosphate buffer (pH 7.4), 30 μmol/L 2-Oleoylglycerol, 10 μmol/L Oleoyl-CoA) were added thereto, and the resultant was stirred and centrifuged, and incubated in a moist chamber at room temperature for 1 hour. […] Diolein as a reaction product (P) of 2-Oleoylglycerol as the substrate and an ammonium adduct ion of the IS were detected, and the peak intensity ratio, P/IS, was calculated from the peak heights to evaluate the inhibitory activity. […] The inhibitory activity was calculated from the formula below with TIBCO Spotfire (produced by TIBCO Software Inc.): Inhibitory activity (%)=[1−{Sample−Control(−)}/{Control(+)−Control(−))}]*100 where Sample indicates a peak intensity ratio: P/IS, when the compound of the present invention was added.

recombinant human MGAT2, sequence (Q3SYC2 whole entry): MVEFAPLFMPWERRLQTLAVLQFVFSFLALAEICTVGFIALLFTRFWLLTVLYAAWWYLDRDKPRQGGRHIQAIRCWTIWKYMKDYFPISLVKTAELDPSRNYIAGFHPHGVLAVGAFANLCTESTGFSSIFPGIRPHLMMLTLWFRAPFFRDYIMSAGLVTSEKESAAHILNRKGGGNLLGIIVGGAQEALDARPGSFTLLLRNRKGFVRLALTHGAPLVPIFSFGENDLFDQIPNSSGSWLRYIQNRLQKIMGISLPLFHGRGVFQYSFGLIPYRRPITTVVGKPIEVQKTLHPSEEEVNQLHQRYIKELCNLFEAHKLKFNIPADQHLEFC

| SMILES | pIC50 |
| --- | --- |
| CC(=O)NCC1=C(c2ccc(CO)cn2)C[C@](c2ccc(OCCCC(F)(F)F)cc2)(C(F)(F)F)NC1=O [Compound I-9] | 7.54 |
| C=C(C)c1ccc(C2=C(CNC(=O)CS(C)(=O)=O)C(=O)N[C@](c3ccc(OCCCC(F)(F)F)cc3)(C(F)(F)F)C2)nc1 [Compound I-73] | 7.11 |
| CC(C)c1ccc(C2=C(CNC(=O)CS(C)(=O)=O)C(=O)N[C@@](c3ccc(OCCCC(F)(F)F)cc3)(C(F)(F)F)C2)nc1 [Compound I-43] | > 9.00 |
| O=C(CO)NCC1=C(c2ccc(C(F)F)cn2)C[C@](c2ccc(OCCCC(F)(F)F)cc2)(C(F)(F)F)NC1=O [Compound I-63] | 6.96 |
| CC(C)c1ccc(C2=C(CNC(=O)CC(=O)OC(C)(C)C)C(=O)N[C@@](c3ccc(OCCCC(F)(F)F)cc3)(C(F)(F)F)C2)nc1 [Compound I-54] | 7.09 |
| CC(C)(O)c1ccc(C2=C(CNC(=O)C3CS(=O)(=O)C3)C(=O)N[C@@](c3ccc(OCCCC(F)(F)F)cc3)(C(F)(F)F)C2)nc1 [Compound I-48] | 8.49 |
| CS(=O)(=O)CC(=O)NCC1=C(c2ccc(C(F)F)cn2)C[C@](c2ccc(OCCCC(F)(F)F)cc2)(C(F)(F)F)NC1=O [Compound I-59] | 8.96 |
| COc1ccc(C2=C(CNC(C)=O)C(=O)N[C@@](c3ccc(OCCCC(F)(F)F)cc3)(C(F)(F)F)C2)nc1 (racemic) [Compound I-11] | 6.96 |
| COc1ccc(C2=C(CNC(=O)C3(C#N)CC3)C(=O)N[C@@](c3ccc(OCCCC(F)(F)F)cc3)(C(F)(F)F)C2)nc1 [Compound I-39] | 7.04 |
| COc1ccc(C2=C(CNC(=O)NC(C)C)C(=O)N[C@@](c3ccc(OCCCC(F)(F)F)cc3)(C(F)(F)F)C2)nc1 [Compound I-32] | 7.01 |
| Cc1ccc(C2=C(CNC(=O)c3ccno3)C(=O)N[C@@](c3ccc(OCCCC(F)(F)F)cc3)(C(F)(F)F)C2)nc1 [Compound I-27] | 8.66 |
| COc1ccc(C2=C(CNS(=O)(=O)CC(F)(F)F)C(=O)N[C@@](c3ccc(OCCCC(F)(F)F)cc3)(C(F)(F)F)C2)nc1 [Compound I-19] | 6.62 |
| CC(C)c1ccc(C2=C(CNC(=O)C3CS(=O)(=O)C3)C(=O)N[C@@](c3ccc(OCCCC(F)(F)F)cc3)(C(F)(F)F)C2)nc1 [Compound I-44] | 8.04 |
| CS(=O)(=O)CC(=O)NCC1=C(c2ccc(Br)cn2)C[C@](c2ccc(OCCCC(F)(F)F)cc2)(C(F)(F)F)NC1=O [Compound I-70] | 8.28 |
| COc1ccc(C2=C(CNC(=O)C(C)C)C(=O)N[C@@](c3ccc(OCCCC(F)(F)F)cc3)(C(F)(F)F)C2)nc1 [Compound I-14] | 8.10 |
| Cc1ccc(C2=C(CNC(=O)C3CS(=O)(=O)C3)C(=O)N[C@@](c3ccc(OCCCC(F)(F)F)cc3)(C(F)(F)F)C2)nc1 [Compound I-29] | 7.74 |
| CS(=O)(=O)CC(=O)NCC1=C(c2ccc(C(F)F)cn2)C[C@](c2ccc(Br)cc2)(C(F)(F)F)NC1=O [Compound I-94] | 7.23 |
| Cc1ccc(C2=C(CNC(N)=O)C(=O)N[C@@](c3ccc(OCCCC(F)(F)F)cc3)(C(F)(F)F)C2)nc1 [Compound I-6] | 6.92 |
| CC(=O)NCC1=C(c2ccc(C(C)=O)cn2)C[C@](c2ccc(OCCCC(F)(F)F)cc2)(C(F)(F)F)NC1=O [Compound I-51] | 6.89 |
| CC(C)c1ccc(C2=C(CNC(=O)C(C)(C)C#N)C(=O)N[C@@](c3ccc(OCCCC(F)(F)F)cc3)(C(F)(F)F)C2)nc1 [Compound I-45] | 8.36 |

| SMILES | pIC50 |
| --- | --- |
| CC(C)(C)OC(=O)N1CC(C(=O)NCC2=C(c3ccc(C(F)F)cn3)C[C@](c3ccc(OCCCC(F)(F)F)cc3)(C(F)(F)F)NC2=O)C1 [Compound I-64] | 7.85 |
| Cc1ccc(C2=C(CNS(N)(=O)=O)C(=O)N[C@@](c3ccc(OCCCC(F)(F)F)cc3)(C(F)(F)F)C2)nc1 [Compound I-5] | 6.64 |
| Cn1ccc(-c2ccc([C@]3(C(F)(F)F)CC(c4ccc(OC(F)F)cn4)=C(CNC(=O)CS(C)(=O)=O)C(=O)N3)cc2)cc1=O [Compound I-100] | 6.43 |
| COc1ccc(C2=C(CNC(=O)CC(F)(F)F)C(=O)N[C@@](c3ccc(OCCCC(F)(F)F)cc3)(C(F)(F)F)C2)nc1 [Compound I-13] | 8.48 |
| CC(=O)NCC1=C(c2ccc(OC(F)F)cn2)C[C@](c2ccc(OCCCC(F)(F)F)cc2)(C(F)(F)F)NC1=O [Compound I-56] | 7.77 |
| CS(=O)(=O)CC(=O)NCC1=C(c2ccc(OC(F)F)cn2)C[C@](c2ccc(OCCCC(F)(F)F)cn2)(C(F)(F)F)NC1=O [Compound I-103] | 8.18 |
| CS(=O)(=O)CC(=O)NCC1=C(c2ccc(C(F)F)cn2)C[C@](c2ccc(OC(F)(F)F)cc2)(C(F)(F)F)NC1=O [Compound I-90] | 7.57 |
| COc1ccc(C2=C(CNS(C)(=O)=O)C(=O)N[C@@](c3ccc(OCCCC(F)(F)F)cc3)(C(F)(F)F)C2)nc1 [Compound I-18] | 6.48 |
| COc1ccc(C2=C(CNC(=O)C(C)(C)C#N)C(=O)N[C@@](c3ccc(OCCCC(F)(F)F)cc3)(C(F)(F)F)C2)nc1 [Compound I-38] | 7.77 |
| O=C(CO)NCC1=C(c2ccc(OC(F)F)cn2)C[C@](c2ccc(OCCCC(F)(F)F)cc2)(C(F)(F)F)NC1=O [Compound I-62] | 7.23 |
| COc1ccc(C2=C(CNS(=O)(=O)CC#N)C(=O)N[C@@](c3ccc(OCCCC(F)(F)F)cc3)(C(F)(F)F)C2)nc1 [Compound I-20] | 7.46 |
| CS(=O)(=O)CC(=O)NCC1=C(c2ccc(C(F)F)cn2)C[C@](c2ccccc2)(C(F)(F)F)NC1=O [Compound I-115] | 6.96 |
| CC(C(=O)NCC1=C(c2ccc(C(F)F)cn2)C[C@](c2ccc(OCCCC(F)(F)F)cc2)(C(F)(F)F)NC1=O)S(C)(=O)=O (stereo partly drawn) [Compound I-85] | 7.62 |
| CC(C)c1ccc(C2=C(CNC(=O)CN(C)C)C(=O)N[C@@](c3ccc(OCCCC(F)(F)F)cc3)(C(F)(F)F)C2)nc1 [Compound I-61] | 7.57 |
| Cc1ccc(C2=C(CNS(C)(=O)=O)C(=O)N[C@@](c3ccc(OCCCC(F)(F)F)cc3)(C(F)(F)F)C2)cc1 [Compound I-1] | 7.68 |
| CS(=O)(=O)CC(=O)NCC1=C(c2ccc(C(F)F)cn2)C[C@](c2ccc(CN3CCOCC3)cc2)(C(F)(F)F)NC1=O [Compound I-97] | 7.41 |
| COc1ccc(C2=C(CNS(=O)(=O)c3ccccc3)C(=O)N[C@@](c3ccc(OCCCC(F)(F)F)cc3)(C(F)(F)F)C2)nc1 [Compound I-23] | 6.12 |
| CS(=O)(=O)CC(=O)NCC1=C(c2ccc(C(F)F)cn2)CC(c2cnn(CCCC(F)(F)F)c2)(C(F)(F)F)NC1=O (racemic) [Compound I-110] | 7.04 |
| COc1ccc(C2=C(CNS(=O)(=O)C3CCOCC3)C(=O)N[C@@](c3ccc(OCCCC(F)(F)F)cc3)(C(F)(F)F)C2)nc1 [Compound I-22] | 6.70 |
